Here are results for five compounds from US20220017483A1, “AMINOPYRIDINE COMPOUND, PREPARATION METHOD THEREFOR AND USE THEREOF” (SICHUAN-KELUN-BIOTECH BIOPHARMACEUTICAL CO., LTD, priority 2018, published 2022).

A short description of data set [1]: Pharmacokinetics in rats, intravenous injection (IV). It is filed as in vivo. Particulars: male, SD, rat, 1 mg/kg, plasma. How it is done: (§1) Experimental Example 2: Pharmacokinetics (PK) and Brain Tissue Distribution Study in Rats
(§2) The compounds of the present invention and control compound 2 were administered to male SD rats by intravenous injection (IV) and intragastric administration (PO) respectively to study the pharmacokinetic characteristics.
(§3) The compounds of the present invention and control compound 2
(§4) synthesized according to the prior art process) were administered by IV and PO. IV and PO dosages were 1 mg/kg and 5 mg/kg, respectively. The vehicle for the IV administration of the compounds of the present invention was a mixture of 5% DMSO:5% Solutol (polyethylene glycol-15 hydroxystearate):90% physiological saline; and the vehicle for the IV administration of control compound 2 was a mixture of 10% DMSO:10% Solutol (polyethylene glycol-15 hydroxystearate):80% physiological saline. The vehicle for the PO administration of the compounds was 0.5% MC (sodium methylcellulose). Blood was collected before IV administration (0 h), and at time points of 0.083, 0.25, 0.5, 1, 2, 4, 6, 8, 24 h or longer (for example, adding time points of 32 and 48 h) after IV administration; and blood was collected before PO administration (0 h), and at time points of 0.25, 0.5, 1, 2, 4, 6, 8, 24 h or longer (for example, adding time points of 32 and 48 h) after PO administration. EDTA.K2 was used for anticoagulation of the blood, and a plasma sample was obtained after centrifugation. Brain tissue homogenates were taken at 0.25, 0.5, 1, and 8 hours after PO administration (3 animals for each time point). The plasma samples and brain tissue homogenate samples were stored at −80° C. Plasma samples and brain tissue homogenates were subjected to analysis by LC-MS/MS, after protein precipitation. The pharmacokinetic parameters were calculated by using non-compartmental model with WinNonlin 6.3 software.

The target of data set [2] is T1, A2a receptor cell membrane (human origin) (Homo sapiens, UniProt P29274).
T1 construct: purchased PerkinElmer RBHA2AM400UA
Put plainly: Competitive inhibition constant (Ki) for adenosine A2a receptor, [3H]-CGS-21680 radioligand binding. Particulars: for Ki(A1)/Ki(A2a): selectivity ratio A1 over A2a. How it is done: A2a receptor cell membrane (human origin): PerkinElmer, RBHA2AM400UA
A2a test buffer: 50 mM Tris-HCl, 10 mM MgCl2, 1 mM EDTA, pH7.4
(§5) The A1 receptor cell membrane was diluted to 0.025 μg/μl with the A1 test buffer and the A2a receptor cell membrane was diluted to 0.05 μg/μl with the A2a test buffer to obtain an A1 receptor cell membrane dilution and an A2a receptor cell membrane dilution.
(§6) The tested compound and CGS15943 were gradiently diluted with DMSO. 1 μl test compound, high-value control (0.5% DMSO), low-value control (1000 nM CGS15943) were added to a 96-well plate, wherein each well was added with 100 μl A1 receptor cell membrane dilution (containing 2.5 μg cell membrane) to obtain an A1 detection plate. Through the same steps, 100 μl A2a receptor cell membrane dilution (containing 5.0 μg cell membrane) was added to each well of a 96-well plate to obtain an A2a detection plate.
The A1 and A2a detection plates were sealed with a tap, and incubated at room temperature for 1 h and 2 h, respectively.
(§7) Unifilter-96 GF/C filter plate was prepared. The Unifilter-96 GF/C filter plate was added with 50 μl 0.3% PEI in each well, and incubated at room temperature for no less than 0.5 h.
(§8) After the incubation, the reaction solutions in the A1 detection plate and the A2a detection plate were transferred to two Unifilter-96 GF/C filter plates. The filter plates were washed with the corresponding pre-cooled washing buffers, then oven dried. After sealing the bottom of the filter plates, 50 μl of Microscint 20 cocktail scintillation fluid was added. After sealing the top of the filter plates, the plates were read in the counter MicroBeta2 Reader.
(§9) Data analysis: The inhibition rate was calculated according to the following formula:
(§10) Inhibition rate %=100−(the signal value of the tested wells−the signal average of the low-value control)/(the signal average of the high-value control−the signal average of the low-value control)*100.
(§11) IC50 was fitted by EXCEL XLfit. The competitive inhibition constant (Ki) was calculated according to the formula: Ki=IC50/(1+the concentration of the isotope-labelled ligands/Kd); Kd is the dissociation constant of the isotope-labeled ligands.

For data set [3], the target named is T2, A1 receptor cell membrane (human origin) (Homo sapiens, UniProt P30542).
T2 construct: purchased PerkinElmer ES-010-M400UA
T2 sequence (P30542 1-326): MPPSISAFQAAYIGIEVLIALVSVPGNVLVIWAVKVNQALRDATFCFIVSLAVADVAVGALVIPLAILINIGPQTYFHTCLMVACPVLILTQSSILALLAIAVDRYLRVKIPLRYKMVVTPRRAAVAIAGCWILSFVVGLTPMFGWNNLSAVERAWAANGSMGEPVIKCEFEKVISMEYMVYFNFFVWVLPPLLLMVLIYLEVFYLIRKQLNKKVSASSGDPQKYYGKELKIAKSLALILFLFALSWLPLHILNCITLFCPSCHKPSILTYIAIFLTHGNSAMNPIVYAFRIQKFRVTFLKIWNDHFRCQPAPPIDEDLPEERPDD
Put plainly: Competitive inhibition constant (Ki) for adenosine A1 receptor, [3H]-DPCPX radioligand binding. Particulars: [3H]-DPCPX 1.0 nM. How it is done: Experimental Example 1: Determination of the Competitive Inhibition Constant (Ki) for Adenosine A1 and A2a Receptors
[^3H]-DPCPX: PerkinElmer, NET974250UC
A1 receptor cell membrane (human origin): PerkinElmer, ES-010-M400UA
A1 test buffer: 25 mM HEPES, 5 mM MgCl2, 1 mM CaCl2, 100 mM NaCl, pH7.4
A1 washing buffer: 25 mM HEPES, 5 mM MgCl2, 1 mM CaCl2, 100 mM NaCl, pH7.4
as §5, §6
100 μl of radioisotope-labelled ligand [^3H]-DPCPX (diluted in A1 test buffer, working concentration 1.0 nM) was added to the A1 detection plate, and 100 μl of radioisotope-labelled ligand [^3H]-CGS-21680 (diluted in A2a test buffer, working concentration 6.0 nM) was added to the A2a detection plate. The A1 and A2a detection plates were sealed with a tap, and incubated at room temperature for 1 h and 2 h, respectively.
as §7, §8, §9, §10, §11

The nature of data set [4]: Pharmacokinetics and brain tissue distribution in rats, intragastric administration (PO). It is filed as in vivo, male SD rats. The conditions noted are these: rat; for bioavailability / AUC(0-t): male, SD, plasma; for bioavailability: po, orally administered 5 mg/kg compared to intravenous 1 mg/kg; for AUC(0-t) / Plasma AUClast/Brain AUClast / AUClast (brain) / capability to penetrate the blood-brain barrier / exposure to brain tissue (in words): PO, 5 mg/kg; for AUC(0-t): read-out: AUClast (plasma); for AUClast (brain): brain tissue homogenate. Here is the method:
as §1, §2, §3, §4

Setting [5] is: human A2a receptor cell membrane, [3H]-CGS-21680 6.0 nM, read-out: Ki(A2a).

Molecules are shown by their SMILES. Like-named read-outs stand apart in the source and are kept apart here.

T1 sequence (P29274 whole entry): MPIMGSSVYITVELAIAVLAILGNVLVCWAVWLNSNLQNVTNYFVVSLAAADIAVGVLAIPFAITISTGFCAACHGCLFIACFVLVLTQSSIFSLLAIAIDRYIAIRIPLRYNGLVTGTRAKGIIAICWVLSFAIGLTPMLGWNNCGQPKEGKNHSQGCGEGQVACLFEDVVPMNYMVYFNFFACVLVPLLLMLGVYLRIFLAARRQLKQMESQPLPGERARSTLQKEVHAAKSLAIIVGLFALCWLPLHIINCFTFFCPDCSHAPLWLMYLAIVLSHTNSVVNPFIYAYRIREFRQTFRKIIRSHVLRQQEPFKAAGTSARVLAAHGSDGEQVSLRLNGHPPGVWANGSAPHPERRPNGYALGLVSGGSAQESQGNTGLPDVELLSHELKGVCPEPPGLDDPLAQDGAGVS

On to `Cc1ncnc2ccc(-c3cc(C(N)=O)c(N)nc3-c3ccc(F)cc3)cc12` [Compound 6, 2-amino-6-(4-fluorophenyl)-5-(4-methylquinazolin-6-yl)nicotinamide], for which, in data set [1], the AUC(0-t) is 6660 ng·h/mL and the Cmax stood at 1250 ng/mL. Further, the Ki in data set [2] (setting [5]) came out at 3.4 nM. In data set [2], the “Ki(A1)/Ki(A2a)” value was 644.6. For the same compound, in data set [3], the Ki was determined as 2190 nM. Besides, in data set [4], the bioavailability came out at 73.9%, the AUC(0-t) came to 24700 ng·h/mL, the “Plasma AUClast/Brain AUClast” value was 73/1 and the “AUClast (brain)” value is 337 (h*ng/g,.
In data set [1], `Cc1ncnc2ccc(-c3cc(-c4cnn(CC(C)(C)O)c4)c(N)nc3-c3ccc(F)cc3)cc12` [Compound 21, 1-(4-(2-amino-6-(4-fluorophenyl)-5-(4-methylquinazolin-6-yl)-pyridin-3-yl)-1H-pyrazol-1-yl)-2-methylpropan-2-ol] gave an AUC(0-t) of 2340 ng·h/mL and a Cmax of 1340 ng/mL. Further, the Ki in data set [2] (setting [5]) was 13.2 nM. Besides, the “Ki(A1)/Ki(A2a)” value in data set [2] worked out at 108.0. The same compound displayed a Ki in data set [3] of 1420 nM. In data set [4], the bioavailability was found to be 68.5%, the AUC(0-t) was determined as 8010 ng·h/mL, the “Plasma AUClast/Brain AUClast” value is 331/1 and the “AUClast (brain)” value is listed as 24.2 (h*ng/g,.
With `CNC(=O)Cn1cc(-c2cc(-c3ccc4ncnc(C)c4c3)c(-c3ccc(F)cc3)nc2N)cn1` [Compound 19, 2-(4-(2-amino-6-(4-fluorophenyl)-5-(4-methylquinazolin-6-yl)-pyridin-3-yl)-1H-pyrazol-1-yl)-N-methylacetamide], in data set [1], the AUC(0-t) amounted to 3940 ng·h/mL and the Cmax was 2960 ng/mL. In addition, the Ki in data set [2] (setting [5]) came to 9.9 nM. Besides, the “Ki(A1)/Ki(A2a)” value in data set [2] is on record as 51.8. Also, the Ki in data set [3] amounted to 513 nM. Also, in data set [4], the bioavailability came out at 95.2%, the AUC(0-t) turned out to be 18800 ng·h/mL, the “Plasma AUClast/Brain AUClast” value was 776/1 and the “AUClast (brain)” value is on record as 24.2 (h*ng/g,.
`Cc1ncnc2ccc(-c3nnc(N)nc3-c3ccc(F)cc3)cc12` [Control compound 2, reference compound]: in data set [1], the AUC(0-t) came to 518 ng·h/mL and the Cmax amounted to 913 ng/mL. Moreover, in data set [4], the bioavailability came to 46.5%, the AUC(0-t) amounted to 1200 ng·h/mL, the “capability to penetrate the blood-brain barrier / exposure to brain tissue (in words)” value was “significantly stronger” and the “AUClast (brain)” value is on record as 1013 (h*ng/g,.
`Cc1ncnc2ccc(-c3cc(-c4cnn(CCC(N)=O)c4)c(N)nc3-c3ccc(F)cc3)cc12` [Compound 20, 3-(4-(2-amino-6-(4-fluorophenyl)-5-(4-methylquinazolin-6-yl)-pyridin-3-yl)-1H-pyrazol-1-yl)propionamide]: in data set [1], the AUC(0-t) was 2530 ng·h/mL and the concentration peaked (Cmax) at 3330 ng/mL. Further, in data set [2], affinity was put at a Ki of 14 nM and the “Ki(A1)/Ki(A2a)” value is 68.8. Moreover, in data set [3], the Ki is 963 nM. Further, in data set [4], the AUC(0-t) is 1900 ng·h/mL, the “capability to penetrate the blood-brain barrier / exposure to brain tissue (in words)” value is “only very low exposure to brain tissue” and the “AUClast (brain)” value is recorded as “undetectable”.

The Cmax is the highest concentration seen after dosing. The Ki is a dissociation constant, usually derived from enzyme kinetics or from competition with a known ligand. Usually bioavailability stands for dose-corrected exposure relative to a reference, in per cent.
